Results taken from US10829798B2, “DNA-linked enzyme-coupled assays” (THE REGENTS OF THE UNIVERSITY OF CALIFORNIA, priority 2014, dated 2020).

How the values were obtained:
OleD = target: T1, OleD (Streptomyces antibioticus, UniProt Q53685, P55A/R82V/R83E/T84P); experiment: qPCR DLEnCA, cell-free transcription/translation-derived OleD; format: biochemical
T1 construct: made in house; host or cells: PURExpress In Vitro Protein Synthesis Kit (NEB E6800L), cell-free transcription/translation, linear DNA with T7 promoter
T1 sequence (Q53685 other isoform, or with tags, fused parts or gaps P55A/R82V/R83E/T84P): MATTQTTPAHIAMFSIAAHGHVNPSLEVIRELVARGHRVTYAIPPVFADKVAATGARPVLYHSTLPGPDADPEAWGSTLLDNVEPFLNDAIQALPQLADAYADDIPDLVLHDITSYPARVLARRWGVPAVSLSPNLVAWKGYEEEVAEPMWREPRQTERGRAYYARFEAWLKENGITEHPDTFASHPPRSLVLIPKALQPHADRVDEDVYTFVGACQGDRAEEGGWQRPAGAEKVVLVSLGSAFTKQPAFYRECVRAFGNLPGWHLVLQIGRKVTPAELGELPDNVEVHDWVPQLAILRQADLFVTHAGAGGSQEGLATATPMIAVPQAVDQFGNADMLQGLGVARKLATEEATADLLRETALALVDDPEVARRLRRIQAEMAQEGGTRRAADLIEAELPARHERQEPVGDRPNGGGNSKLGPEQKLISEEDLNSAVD
Description: (§1) FIG. 4A-FIG. 4D. qPCR DLEnCA and substrate specificity studies. A. Chemicals used as substrates in subsequent assays: (i) known substrates of OleD; (ii) flavone library; (iii) known substrates of GT05 (UGT72B1 (Q9M156)) and GT06 (UGT89B1 (AT1 G73880)). B. DNA encoding OleD (5 nM) was incubated in a cell-free transcription/translation system for 3 hours at 37° C., followed by the addition of chemical (1 mM) and UDP-Glc (2 μM). After a subsequent incubation of 3 hours, TbGT and probe (0.2 nM) were added. After probe purification and MfeI digestion, probe integrity was identified using qPCR. Percent recovery of probe is reported (n=8; error bars=standard error). C. DNA encoding OleD (5 nM) was incubated for 3 hours at 37° C. in a cell-free transcription/translation system, followed by the addition of flavone (1 mM) and UDP-Glc (2 μM). After a subsequent incubation of 3 hours, TbGT and probe (0.2 nM) were added. After probe purification and MfeI addition, probe integrity was identified using qPCR. Percent recovery of probe is reported (n=8; error bars=standard error). D. DNA encoding OleD, GT05, or GT06 (5 nM) were incubated for 3 hours at 37° C. in a cell-free transcription/translation system, followed by the addition of chemical (1 mM) and UDP-Glc (2 μM). After a subsequent incubation of 3 hours, TbGT and probe (0.2 nM) were added. After probe purification and MfeI digestion, probe integrity was identified using qPCR. Percent recovery of probe is reported as a heat map (n=8) (specific recovery figures and percent error can be found in FIG. 16). *=p<0.05 vs. no chemical control.
PCR tubes were used for most reactions. All incubations were performed at 37° C. Assays were initiated upon the addition of linear DNA (5 nM final concentration) to 4 μl PURExpress Solution A and 3 μl PURExpress Solution B. Samples were incubated at 37° C. for 3 hours prior to addition of UDP-Glucose and chemical (1 mM final concentration) in DMSO. Samples were incubated for an additional 3 hours prior to addition of 1 unit T4 Phage β-glucosyltransferase containing 0.2 nM probe. Samples were incubated an additional 3 hours before DNA was purified using the Zymo DNA Clean and Concentrator Kit. Samples were digested overnight with MfeI prior to analysis. Concentration of intact DNA probe was identified using the iQ SYBR Green Supermix (1708880) with probe DNA as standards. qPCR was carried out on the Bio-Rad iQ5 Multicolor Real-Time PCR Detection System using primers P13 and P14 with the following temperatures; 94° C. 30 seconds followed by 40 cycles of 94° C. 10 seconds and 55° C. for 30 seconds. All results were compared to uncut probe DNA that had been carried through the process as negative controls (considered full recovery of probe).
The second DLEnCA workflow developed involved qPCR as a final readout (qPCR DLEnCA, FIG. 1—qPCR workflow). A linear fragment of DNA was modified to contain 5-hm-cytosines throughout. To determine a threshold for probe protection under conditions amenable to the qPCR DLEnCA workflow, UDP-Glc was titrated into mixtures of the cell-free transcription/translation system containing 5-hm-cytosine-modified DNA probe (0.2 nM probe DNA containing 0.1 μM modified 5-hm-cytosines) and TbGT. After digestion with the restriction enzyme MfeI, the amount of intact DNA probe was determined using qPCR (FIG. 3C). […] A threshold for protection was identified at a 20:1 molar ratio of UDP-Glc to total 5-hm-cytosine in probe DNA; this UDP-Glc amount was used as the starting concentration of UDP-Glc for all qPCR experiments. To test the feasibility of qPCR DLEnCA, OleD was again tested upon the substrate kaempferol (FIG. 3D), using DNA encoding a promoter and OleD as starting material. As expected, when all components of the assay were present, 27% of intact probe DNA was recovered. […]

GT05 (UGT72B1 (Q9M156)) = target: T2, GT05 (UGT72B1 (Q9M156)) (Arabidopsis thaliana, UniProt Q9M156); experiment: qPCR DLEnCA, cell-free transcription/translation-derived GT05; format: biochemical; conditions: GT05 DNA 5 nM, chemical 1 mM, UDP-Glc 2 μM, probe 0.2 nM; low recovery = substrate glucosylated
T2 construct: made in house; host or cells: PURExpress In Vitro Protein Synthesis Kit (NEB E6800L), cell-free transcription/translation, linear DNA amplified from pET15b construct
T2 sequence (Q9M156 1-480): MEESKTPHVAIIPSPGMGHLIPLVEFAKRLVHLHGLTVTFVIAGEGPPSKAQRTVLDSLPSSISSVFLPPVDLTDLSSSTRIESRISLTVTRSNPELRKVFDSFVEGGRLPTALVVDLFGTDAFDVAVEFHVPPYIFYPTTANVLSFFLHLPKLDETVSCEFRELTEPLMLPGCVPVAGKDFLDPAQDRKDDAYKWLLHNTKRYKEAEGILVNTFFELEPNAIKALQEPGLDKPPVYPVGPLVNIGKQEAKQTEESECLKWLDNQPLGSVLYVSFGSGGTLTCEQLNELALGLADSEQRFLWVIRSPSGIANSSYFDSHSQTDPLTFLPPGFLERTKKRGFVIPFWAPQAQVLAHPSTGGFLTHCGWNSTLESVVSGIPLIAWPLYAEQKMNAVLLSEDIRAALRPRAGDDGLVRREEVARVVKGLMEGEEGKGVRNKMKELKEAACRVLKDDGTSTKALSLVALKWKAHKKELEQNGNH
Description: as §1
PCR tubes were used for most reactions. All incubations were performed at 37° C. Assays were initiated upon the addition of linear DNA (5 nM final concentration) to 4 μl PURExpress Solution A and 3 μl PURExpress Solution B. Samples were incubated at 37° C. for 3 hours prior to addition of UDP-Glucose and chemical (1 mM final concentration) in DMSO. Samples were incubated for an additional 3 hours prior to addition of 1 unit T4 Phage β-glucosyltransferase containing 0.2 nM probe. […]

Question: Which results are given for `O=c1c(O)c(-c2ccc(O)cc2)oc2cc(O)cc(O)c12` [I, kaempferol]?
Answer: recovery of intact probe DNA (OleD; OleD DNA 5 nM, chemical 1 mM, UDP-Glc 2 μM, probe 0.2 nM, low recovery = substrate glucosylated): 27%; activity of OleD with chemical (OleD; tested against I, X, XI, XII, qPCR DLEnCA, verified with LCMS): showed activity; recovery of probe (GT05 (UGT72B1 (Q9M156))): 32%
